What follows are compounds tested on T1, STING (assay: Human whole blood assay (HWBA), cGAMP-stimulated IFNα2α production). Conditions: human whole blood stimulated by cGAMP.
T1 construct: from tissue; host or cells: human whole blood from healthy donors
Format: cell-based
Procedure: For the detection of STING inhibition in physiological environment human whole blood was stimulated by the cyclic dinucleotide cGAMP. Pathway activity was monitored by measuring the IFNα2α production.
Assay method: Compounds were delivered as 10 mM DMSO solution and serial diluted and transferred to the 96-well Cell culture Plate (Corning #3595), prefilled with 20 μl OptiMEM (Gibco #11058-021) in each well, using an Echo acoustic dispenser. Typically, 8 concentrations were used with the highest concentration at 10 μM in the final assay volume followed by ^˜1:5 dilution steps. DMSO concentration was set to 0.1% in the final assay volume. The 96 well assay plate contained 9 test compounds, a reference compound and DMSO in control wells.
Collection of human whole blood from 3 or more healthy donors (male or female, no medication for 7 days, exception contraceptive and thyroxine) as Na-citrate blood (e.g. 3.8% in Monovettes from Sarstedt) is conducted in parallel. Whole blood was kept at room temperature for a maximum of 3 hours after collection until use in the assay.
160 μl of the whole blood samples were transferred to each well of the 96-well assay plates filled with compound/OptiMEM. All assay plates are prepared as duplicates with blood from different donors. Blood plates were kept at room temperature for 60 minutes and continuous shaking with 450 rpm, covered with the lid, but not sealed.
A 10× cGAMP assay solution was diluted from a 2 mM stock solution in 1×HBSS immediately before use at room temperature. 20 μl of the 10× cGAMP/HBSS were added to all compound and all high control wells, whereas HBSS only was added to all low control wells.
After covering assay plates with aera seals and the lid, blood plates were kept at room temperature for 30 minutes and continuous shaking with 450 rpm, followed by an overnight incubation of 22 h at 37° C. in the incubator, without shaking.
For the detection of IFNα-2α in human plasma, the biotinylated capture antibody (Antibody set IFNA2, Meso Scale Diagnostics #B21VH-3, including coating and capture antibody) was diluted 1:17.5 in Diluent 100 (Meso Scale Diagnostics #R50AA-4, according to the manufacturer. U-Plex MSD GOLD 96-well Small Spot Streptavidin SECTOR Plates (Meso Scale Diagnostics #L45SA-5) were coated with 25 μl diluted capture antibody. Coated plates were incubated for 60 min at room temperature under continuous shaking at 700 rpm. MSD IFNα-2α plates were washed three times with 150 μl wash buffer (1×HBSS, 0.05% Tween).
After blocking the plates with 100 μl block solution/well (1×HBSS with 0.2% Tween, 2% BSA) for 60 min at room temperature and continuous shaking at 700 rpm, plates were emptied as dry as possible by dumping just before continuing with the human plasma. Whole Blood assay plates were centrifuged at 1600 rpm for 10 minutes. 25 μl of supernatant was transferred with a pipetting robotics from each whole blood plate to the corresponding IFNα-2α plate. Plates were sealed with microplate seals and kept at room temperature again under continuous shaking at 700 rpm for two hours. Next MSD IFNα-2α plates were washed three times with 150 μl wash buffer (1×HBSS, 0.05% Tween), before adding 25 μl MSD SULFO-TAG IFNα-2α Antibody solution (1:100 diluted in Diluent 3 (Meso Scale Diagnostics #R50AP-2) to each well of the plates. Afterwards plates were sealed with microplate seals and kept at room temperature again under continuous shaking at 700 rpm for two hours. Finally, MSD IFNα-2α plates were washed three times with 150 μl wash buffer (1×HBSS, 0.05% Tween). 150 μl 2× Read buffer was added to each well and plates were immediately measured with the MSD Sector S600 Reader using the vendor barcode.
Data evaluation and calculation: For data evaluation and calculation, % control calculation of each well was based on the mean of high (cGAMP stimulated control) and mean of low (unstimulated control) controls by using the following formula: […]
In the case of Cn1nc(-n2cc3c(-c4nc(-c5ccc(P(C)(C)=O)cc5OC(F)(F)F)n(C)c4C4CC4)cccc3n2)cc1C(F)F [Example 2, 4-{5-cyclopropyl-2-[4-(dimethylphosphoryl)-2-(trifluoromethoxy)phenyl]-1-methyl-1H-imidazol-4-yl}-2-[5-(difluoromethyl)-1-methyl-1H-pyrazol-3-yl]-2H-indazole], the IC50 is reported as 0.21 µM. Work on COc1nn(C)cc1-n1cc2c(-c3nc(-c4ccc(C(=O)N(C)C)cc4OC(F)(F)F)n(C)c3C3CC3)cccc2n1 [Example 3, 4-{5-cyclopropyl-4-[2-(3-methoxy-1-methyl-1H-pyrazol-4-yl)-2H-indazol-4-yl]-1-methyl-1H-imidazol-2-yl}-N,N-dimethyl-3-(trifluoromethoxy)benzamide] yielded an IC50 of 2.6 µM. With CCOc1nn(C)cc1-n1cc2c(-c3nc(-c4ccc(C(N)=O)cc4OC(F)(F)F)n(C)c3C3CC3)cccc2n1 [Example 4, 4-{5-cyclopropyl-4-[2-(3-ethoxy-1-methyl-1H-pyrazol-4-yl)-2H-indazol-4-yl]-1-methyl-1H-imidazol-2-yl}-3-(trifluoromethoxy)benzamide] the IC50 was 0.095 µM. With COc1nn(C2CC2)cc1-n1cc2c(-c3nc(-c4ccc(C(N)=O)cc4OCC(F)F)n(C)c3C3CC3)cccc2n1 [Example 6, 4-{5-cyclopropyl-4-[2-(1-cyclopropyl-3-methoxy-1H-pyrazol-4-yl)-2H-indazol-4-yl]-1-methyl-1H-imidazol-2-yl}-3-(2,2-difluoroethoxy)benzamide] the IC50 was 0.058 µM. For CC[P@](C)(=O)c1ccc(-c2nc(-c3cccc4nn(-c5cc(C(F)F)n(C)n5)cc34)c(C3CC3)n2C)c(OC(F)(F)F)c1 [Example 7, 4-(5-cyclopropyl-2-{4-[(S)-ethyl(methyl)phosphoryl]-2-(trifluoromethoxy)phenyl}-1-methyl-1H-imidazol-4-yl)-2-[5-(difluoromethyl)-1-methyl-1H-pyrazol-3-yl]-2H-indazole], the IC50 was 0.057 µM. For Cn1nc(-n2cc3c(-c4nc(-c5ccc(C(N)=O)cc5OC(F)(F)F)n(C)c4C4CC4)cccc3n2)cc1C(F)(F)F [Example 8, 4-(5-cyclopropyl-1-methyl-4-{2-[1-methyl-5-(trifluoromethyl)-1H-pyrazol-3-yl]-2H-indazol-4-yl}-1H-imidazol-2-yl)-3-(trifluoromethoxy)benzamide], the IC50 was 0.08 µM. COc1nn(C2CC2)cc1-n1cc2c(-c3nn(-c4ccc(P(C)(C)=O)cc4C)c(C)c3C(C)C)cccc2n1 [Example 9, 2-(1-cyclopropyl-3-methoxy-1H-pyrazol-4-yl)-4-{1-[4-(dimethylphosphoryl)-2-methylphenyl]-5-methyl-4-(propan-2-yl)-1H-pyrazol-3-yl}-2H-indazole] was tested, and the IC50 was 1.5 µM. COc1nn(CC(C)(C)O)cc1-n1cc2c(-c3nc(-c4ccc(C(N)=O)cc4OC(F)(F)F)n(C)c3C3CC3)cccc2n1 [Example 11, 4-(5-cyclopropyl-4-{2-[1-(2-hydroxy-2-methylpropyl)-3-methoxy-1H-pyrazol-4-yl]-2H-indazol-4-yl}-1-methyl-1H-imidazol-2-yl)-3-(trifluoromethoxy)benzamide] showed an IC50 of 0.88 µM. In the case of COCc1cc(C(N)=O)ccc1-c1nc(-c2cccc3nn(-c4cn(C5CC5)nc4OC)cc23)c(C2CC2)n1C [Example 12, 4-{5-cyclopropyl-4-[2-(1-cyclopropyl-3-methoxy-1H-pyrazol-4-yl)-2H-indazol-4-yl]-1-methyl-1H-imidazol-2-yl}-3-(methoxymethyl)benzamide], the IC50 is reported as 0.84 µM. CC[P@@](C)(=O)c1ccc(-c2nc(-c3cccc4nn(-c5cn(C6CC6)nc5OC)cc34)c(C3CC3)n2C)c(OC(F)(F)F)c1 [Example 13, 4-(5-cyclopropyl-2-{4-[(R)-ethyl(methyl)phosphoryl]-2-(trifluoromethoxy)phenyl}-1-methyl-1H-imidazol-4-yl)-2-(1-cyclopropyl-3-methoxy-1H-pyrazol-4-yl)-2H-indazole] was tested, and the IC50 was 0.038 µM. With CC[P@](C)(=O)c1ccc(-c2nc(-c3cccc4nn(-c5cn(C6CC6)nc5OC)cc34)c(C3CC3)n2C)c(OC(F)(F)F)c1 [Example 14, 4-(5-cyclopropyl-2-{4-[(S)-ethyl(methyl)phosphoryl]-2-(trifluoromethoxy)phenyl}-1-methyl-1H-imidazol-4-yl)-2-(1-cyclopropyl-3-methoxy-1H-pyrazol-4-yl)-2H-indazole] the IC50 was 0.011 µM. In the case of COc1nn(C2CC2)cc1-n1cc2c(-c3nc(-c4ccc(C(=O)N(C)C)cc4OC(F)(F)F)n(C)c3C3CC3)cccc2n1 [Example 15, 4-{5-cyclopropyl-4-[2-(1-cyclopropyl-3-methoxy-1H-pyrazol-4-yl)-2H-indazol-4-yl]-1-methyl-1H-imidazol-2-yl}-N,N-dimethyl-3-(trifluoromethoxy)benzamide], the IC50 is reported as 0.11 µM. COc1nn(C2CC2)cc1-n1cc2c(-c3nc(-c4ccc(C(N)=O)cc4OC(F)(F)F)n(C)c3C3CC3)cccc2n1 [Example 16, 4-{5-cyclopropyl-4-[2-(1-cyclopropyl-3-methoxy-1H-pyrazol-4-yl)-2H-indazol-4-yl]-1-methyl-1H-imidazol-2-yl}-3-(trifluoromethoxy)benzamide] was tested, and the IC50 was 0.035 µM. For CCP(=O)(CC)c1ccc(-c2nc(-c3cccc4nn(-c5cc(C(F)(F)F)n(C)n5)cc34)c(C3CC3)n2C)c(OC(F)(F)F)c1 [Example 17, 4-{5-cyclopropyl-2-[4-(diethylphosphoryl)-2-(trifluoromethoxy)phenyl]-1-methyl-1H-imidazol-4-yl}-2-[1-methyl-5-(trifluoromethyl)-1H-pyrazol-3-yl]-2H-indazole], the IC50 was 0.089 µM. CC[P@](C)(=O)c1ccc(-c2nc(-c3cccc4[nH]c(-c5cc(C(F)(F)F)n(C)n5)nc34)c(C3CC3)n2C)c(OC(F)(F)F)c1 [Example 18, 4-(5-cyclopropyl-2-{4-[(S)-ethyl(methyl)phosphoryl]-2-(trifluoromethoxy)phenyl}-1-methyl-1H-imidazol-4-yl)-2-[1-methyl-5-(trifluoromethyl)-1H-pyrazol-3-yl]-1H-1,3-benzodiazole] was tested, and the IC50 was 0.087 µM. For CC[P@](C)(=O)c1ccc(-c2nc(-c3cccc4nn(-c5cc(C6CC6)n(C)n5)cc34)c(C3CC3)n2C)c(OC(F)(F)F)c1 [Example 19, 2-(5-cyclopropyl-1-methyl-1H-pyrazol-3-yl)-4-(5-cyclopropyl-2-{4-[(S)-ethyl(methyl)phosphoryl]-2-(trifluoromethoxy)phenyl}-1-methyl-1H-imidazol-4-yl)-2H-indazole], the IC50 was 0.14 µM.

The compounds below were run on STING (assay: IP10 production in human dermal microvascular endothelial cells (MVEC) after double-stranded DNA stimulation). Conditions: IP10 production after dsDNA stimulation; rounded average of multiple experiments; read-out: Inhibition of Human microvascular endothelial cells (IC50 nM).
Format: cell-based
Description: Interferon gamma-induced protein 10 (IP-10) also known as C—X—C motif chemokine ligand 10 (CXCL10) is produced as one of the responses of the presence of double-stranded DNA in the cytoplasm and resulting STING activity. In some diseases, imbalanced STING activation can result to damage in the endothelium, for example in SAVI patients (Liu Yet al. Activated STING in a vascular and pulmonary syndrome. N Engl J Med. 2014 Aug. 7; 371(6):507-518. doi: 10.1056/NEJMoa1312625). To test the efficacy of the inventive STING inhibitors, experiments in human microvascular endothelial cells (HMVEC) are performed with the inventive compounds. Dermal HMVEC are available from Lonza, US. They are cultured in 96 well plates according to the manufacturer's instructions. Using typical protocols, the cells are serum starved and then treated with the compound for 1 hour. The cells are then treated with 400 ng/mL of dsDNA as a complex with Lipofectamine 3000 (from Thermo Fisher Scientific Inc., Waltham, MA, USA) and incubated for 6 hours. The supernatants are collected and assayed for IP10 production.
Detection of IP10 is done using the U-PLEX HUMAN IP-10 ASSAY from Meso Scale Diagnostics (1601 Research Boulevard, Rockville, Maryland 20850-3173, USA) according to manufacturer's protocols.
Compound CC[P@](C)(=O)c1ccc(-c2nc(-c3cccc4nn(-c5cc(C(F)F)n(C)n5)cc34)c(C3CC3)n2C)c(OC(F)(F)F)c1 [Example 7, 4-(5-cyclopropyl-2-{4-[(S)-ethyl(methyl)phosphoryl]-2-(trifluoromethoxy)phenyl}-1-methyl-1H-imidazol-4-yl)-2-[5-(difluoromethyl)-1-methyl-1H-pyrazol-3-yl]-2H-indazole] has an IC50 of 21 nM.

Source: patent publication US20250333398A1, “MONOARYL AND HETARYL SUBSTITUTED INDAZOLES AND BENZIMIDAZOLES AS STING ANTAGONISTS AND THE USE THEREOF AS MEDICAMENT” (Boehringer Ingelheim International GmbH, priority 2024, published 2025)
